T/C data for 13 compounds are collected here from PubChem BioAssay AID248 (DTP/NCI, 2004).

Several values for one entry are separate records, joined by “and”; a condition that tells them apart may be missing. Equal values may be shown once. Toxic doses and inconclusive results are not listed.

This assay relates to L1210 leukemia ip in BDF1 mice, survival T/C. Nature of the assay: NCI In Vivo Anticancer Drug Screen. Data for tumor model L1210 Leukemia (intraperitoneal) in B6D2F1 (BDF1) mice. The following applies: endpoint: mean survival time, higher = longer survival. The procedure, abridged: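 Transplantable tumor model; survival measured in treated vs vehicle control mice. Value = treated/control.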

[1] abbreviates: dose: 100.0 mg/kg/injection, schedule: Q04DX003 (ip), vehicle: saline.
The mark [2] stands for this setting: dose: 200.0 mg/kg/injection, schedule: Q04DX003 (ip), vehicle: saline.
Setting [3] is: dose: 400.0 mg/kg/injection, schedule: Q04DX003 (ip), vehicle: saline.

Consider `Nc1cc(C(=O)Nc2ccc(C3=NCCN3)cc2)ccc1C(=O)Nc1ccc(C2=NCCN2)cc1`, for which the T/C is 107 % of control (dose: 0.49 mg/kg/injection, schedule: Q01DX Z (ip), vehicle: saline); 117 % of control (dose: 0.73 mg/kg/injection, schedule: Q01DX Z (ip), vehicle: saline); 103 % of control (dose: 2.5 mg/kg/injection, schedule: Q01DX Z (ip), vehicle: methylcellulose (MC)); 153 % of control (dose: 2.7 mg/kg/injection, schedule: Q01DX Z (ip), vehicle: carboxymethylcellulose (CMC)); 162 % of control (dose: 4.0 mg/kg/injection, schedule: Q01DX Z (ip), vehicle: carboxymethylcellulose (CMC)); 156 % of control (dose: 4.0 mg/kg/injection, schedule: Q01DX Z (ip), vehicle: methylcellulose (MC)). For the same compound, the T/C (dose: 4.4 mg/kg/injection, schedule: Q01DX015 (ip), vehicle: carboxymethylcellulose (CMC)) was 259 % of control; the T/C (dose: 6.0 mg/kg/injection, schedule: Q01DX Z (ip), vehicle: carboxymethylcellulose (CMC)) is 212 % of control; the T/C (dose: 6.0 mg/kg/injection, schedule: Q01DX Z (ip), vehicle: methylcellulose (MC)) was 250 % of control; the T/C (dose: 6.6 mg/kg/injection, schedule: Q01DX015 (ip), vehicle: carboxymethylcellulose (CMC)) was 329 % of control; the T/C (dose: 9.0 mg/kg/injection, schedule: Q01DX Z (ip), vehicle: carboxymethylcellulose (CMC)) was 247 % of control; the T/C (dose: 9.0 mg/kg/injection, schedule: Q01DX Z (ip), vehicle: methylcellulose (MC)) is 200 % of control and 346 % of control. The T/C is 303 % of control (dose: 10.0 mg/kg/injection, schedule: Q01DX015 (ip), vehicle: carboxymethylcellulose (CMC)); 345 % of control (dose: 14.0 mg/kg/injection, schedule: Q01DX Z (ip), vehicle: carboxymethylcellulose (CMC)); 226 % of control and 329 % of control (dose: 14.0 mg/kg/injection, schedule: Q01DX Z (ip), vehicle: methylcellulose (MC)); 333 % of control (dose: 15.0 mg/kg/injection, schedule: Q01DX015 (ip), vehicle: carboxymethylcellulose (CMC)); 96 % of control (dose: 15.0 mg/kg/injection, schedule: Q01DX Z (oral), vehicle: carboxymethylcellulose (CMC)); 154 % of control and 279 % of control (dose: 20.0 mg/kg/injection, schedule: Q01DX Z (ip), vehicle: carboxymethylcellulose (CMC)). Also, the T/C (dose: 20.0 mg/kg/injection, schedule: Q01DX Z (ip), vehicle: methylcellulose (MC)) was 94 % of control; the T/C (dose: 30.0 mg/kg/injection, schedule: Q01DX Z (ip), vehicle: carboxymethylcellulose (CMC)) is 152 % of control; the T/C (dose: 30.0 mg/kg/injection, schedule: Q01DX Z (oral), vehicle: carboxymethylcellulose (CMC)) was 93 % of control; the T/C (dose: 45.0 mg/kg/injection, schedule: Q01DX Z (ip), vehicle: carboxymethylcellulose (CMC)) was 101 % of control; the T/C (dose: 47.0 mg/kg/injection, schedule: Q01DX Z (ip), vehicle: methylcellulose (MC)) was 86 % of control; the T/C (dose: 60.0 mg/kg/injection, schedule: Q01DX Z (oral), vehicle: carboxymethylcellulose (CMC)) is 93 % of control. The T/C (dose: 120.0 mg/kg/injection, schedule: Q01DX Z (oral), vehicle: carboxymethylcellulose (CMC)) was 117 % of control; the T/C (dose: 240.0 mg/kg/injection, schedule: Q01DX Z (oral), vehicle: carboxymethylcellulose (CMC)) is 100 % of control; the T/C (dose: 480.0 mg/kg/injection, schedule: Q01DX Z (oral), vehicle: carboxymethylcellulose (CMC)) is 94 % of control; the T/C (dose: 960.0 mg/kg/injection, schedule: Q01DX Z (oral), vehicle: carboxymethylcellulose (CMC)) is 107 % of control.

`O=C(NCCc1ccccc1)Nc1ccccc1Cl`: the T/C runs as follows: (dose: 100.0 mg/kg/injection, schedule: Q01DX009 (ip), vehicle: gum acacia) 96 % of control; (dose: 100.0 mg/kg/injection, schedule: Q04DX003 (ip), vehicle: gum acacia) 92 % of control; (dose: 200.0 mg/kg/injection, schedule: Q01DX009 (ip), vehicle: gum acacia) 115 % of control; (dose: 200.0 mg/kg/injection, schedule: Q04DX003 (ip), vehicle: gum acacia) 92 % of control; (dose: 400.0 mg/kg/injection, schedule: Q01DX009 (ip), vehicle: gum acacia) 100 % of control; (dose: 400.0 mg/kg/injection, schedule: Q04DX003 (ip), vehicle: gum acacia) 97 % of control.

Consider `O=S1(=O)C=CC(Br)C1` (stereo not drawn), for which the T/C is 100 % of control (dose: 100.0 mg/kg/injection, schedule: Q01DX001 (ip), vehicle: saline with Tween-80) and 101 % of control (dose: 200.0 mg/kg/injection, schedule: Q01DX001 (ip), vehicle: saline with Tween-80).

For the compound `CCOC(CCCN=CN(C)C)OCC`, the T/C reads like this: under setting [1], 102 % of control; under setting [2], 100 % of control; under setting [3], 102 % of control.

As to `Nc1ncnc2c1ncn2C1OC(CO)C(S)C1O` (stereo not drawn), the T/C by setting is: (dose: 100.0 mg/kg/injection, schedule: Q01DX001 (ip), vehicle: carboxymethylcellulose (CMC)) 105 % of control; (dose: 200.0 mg/kg/injection, schedule: Q01DX001 (ip), vehicle: carboxymethylcellulose (CMC)) 92 % of control.

For the compound `C=CCON(C)c1ccccc1`, the T/C under setting [1] was 94 % of control, the T/C under setting [2] is 108 % of control and the T/C under setting [3] was 96 % of control.

Turning to `O=C1Nc2cc(C(F)(F)F)ccc2/C1=C/c1ccc(Cl)cc1`, the T/C by setting is: (dose: 75.0 mg/kg/injection, schedule: Q01DX001 (ip), vehicle: saline) 92 % of control; (dose: 75.0 mg/kg/injection, schedule: Q04DX003 (ip), vehicle: saline) 96 % of control; (dose: 150.0 mg/kg/injection, schedule: Q01DX001 (ip), vehicle: saline) 97 % of control; (dose: 150.0 mg/kg/injection, schedule: Q04DX003 (ip), vehicle: saline) 100 % of control; (dose: 300.0 mg/kg/injection, schedule: Q01DX001 (ip), vehicle: saline) 97 % of control; (dose: 300.0 mg/kg/injection, schedule: Q04DX003 (ip), vehicle: saline) 94 % of control.

As for `NC(=O)Nc1cccc(C(=O)O)c1C(=O)O`, the T/C is, setting by setting: (dose: 100.0 mg/kg/injection, schedule: Q01DX001 (ip), vehicle: other) 101 % of control; (dose: 100.0 mg/kg/injection, schedule: Q04DX003 (ip), vehicle: other) 102 % of control; (dose: 200.0 mg/kg/injection, schedule: Q01DX001 (ip), vehicle: other) 101 % of control; (dose: 200.0 mg/kg/injection, schedule: Q04DX003 (ip), vehicle: other) 98 % of control; (dose: 400.0 mg/kg/injection, schedule: Q01DX001 (ip), vehicle: other) 107 % of control; (dose: 400.0 mg/kg/injection, schedule: Q04DX003 (ip), vehicle: other) 98 % of control.

As for `Cc1cccc(CO)c1NC(=O)NCCCl`, the T/C was 99 % of control (dose: 100.0 mg/kg/injection, schedule: Q04DX003 (ip), vehicle: Klucel (hydroxypropylcellulose) (HPC)); 110 % of control (dose: 200.0 mg/kg/injection, schedule: Q04DX003 (ip), vehicle: Klucel (hydroxypropylcellulose) (HPC)); 103 % of control (dose: 400.0 mg/kg/injection, schedule: Q04DX003 (ip), vehicle: Klucel (hydroxypropylcellulose) (HPC)).

In the case of `NC(=O)OCc1ccccc1`, the T/C reads like this: (dose: 50.0 mg/kg/injection, schedule: Q04DX002 (ip), vehicle: Klucel (hydroxypropylcellulose) (HPC)) 98 % of control; (dose: 100.0 mg/kg/injection, schedule: Q04DX002 (ip), vehicle: Klucel (hydroxypropylcellulose) (HPC)) 98 % of control; (dose: 200.0 mg/kg/injection, schedule: Q04DX002 (ip), vehicle: Klucel (hydroxypropylcellulose) (HPC)) 94 % of control; (dose: 400.0 mg/kg/injection, schedule: Q04DX002 (ip), vehicle: Klucel (hydroxypropylcellulose) (HPC)) 94 % of control.

As for `Nc1ccccc1SC1CC(=O)N(c2ccc(Oc3ccc(Cl)cc3)cc2)C1=O` (stereo not drawn), the T/C runs as follows: (dose: 75.0 mg/kg/injection, schedule: Q01DX009 (ip), vehicle: Klucel (hydroxypropylcellulose) (HPC)) 87 % of control; (dose: 150.0 mg/kg/injection, schedule: Q01DX009 (ip), vehicle: Klucel (hydroxypropylcellulose) (HPC)) 98 % of control; (dose: 300.0 mg/kg/injection, schedule: Q01DX009 (ip), vehicle: Klucel (hydroxypropylcellulose) (HPC)) 92 % of control.

Regarding `Nc1cc2ccc3ccccc3c2c2ccccc12`, the T/C was 110 % of control (dose: 100.0 mg/kg/injection, schedule: Q01DX001 (ip), vehicle: Klucel (hydroxypropylcellulose) (HPC)) and 94 % of control (dose: 130.0 mg/kg/injection, schedule: Q01DX001 (ip), vehicle: Klucel (hydroxypropylcellulose) (HPC)).

Take `O=C1CN(Br)C(=O)N1Br`: the T/C is, setting by setting: (dose: 100.0 mg/kg/injection, schedule: Q01DX009 (ip), vehicle: saline) 105 % of control; under setting [1], 98 % of control; (dose: 200.0 mg/kg/injection, schedule: Q01DX009 (ip), vehicle: saline) 107 % of control; under setting [2], 105 % of control; under setting [3], 100 % of control.
